Reference: patent publication US8877163B2, “Cycloalkyl triamine pentacarboxylate as ligands for paramagnetic metal complexes” (Kaohsiung Medical University, priority 2006, dated 2014)
Where two headings read alike, the source gives them in different places. Blank lines part the entries; values can stand above or below the molecule they belong to.

Key:
[1] = after removal of the galactopyranoside by β-gal; cited from earlier work
[2] = Protonation constants by potentiometric titration (PKAS program); assay type: physicochemical; conditions: sum of the four protonation constants
Experimental: Firstly, the ligands (HnL) are deprotoned (L^n−) by treating them with the alkaline solution. After that, a slow addition of the acidic solution for associating the deprotonated ligand with the protons (H^+) is performed, and thus protonated organic ligands are formed. The equation for the protonation constant is shown as follows:
Please refer to FIG. 2, which is a potentiometric titration curve for CB-TTDA (the ionic strength I=0.1 M Me4NCl and the temperature T=25.0±0.1° C.) measured by an automatic titrator system. The protonation constants for the CB-TTDA are determined from the titration data with the FORTRAN computer program PKAS as shown in Table 1.

[3] = Stability constants of the gadolinium complex by potentiometric titration (BEST program); assay type: physicochemical
From the text: (§1) Presently, there are two ways for calculating the thermodynamic stability constant of a metal complex by the potentiometric titration. […] The second method is suitable for the metal complex whose disassociation rate is less than 25% at low pH (such as pH 2). Take the metal complex of the present invention for instance, since it is not able to form a complex with the ligand at a pH value around 2, the thermodynamic stability constant thereof must be calculated by the previous method. The equation for the thermodynamic stability constant is defined as follows: [formula] where M represents the metal ion, L represents the ligand, and ML represents the metal complex. […] The thermodynamic stability constants for the metal complexes with CB-TTDA are determined from the titration data with the FORTRAN computer program BEST as shown in Table 2 with the reported thermodynamic stability constants of TTDA and DTPA, which are respectively reported by Y M. Wang et al., Inorganic Chemistry, vol. 44, page 382, 2005 and by P. Caravan et al., Inorganic Chemistry, vol. 44, page 2170, 2001. The conditional stability constant (Kcond) specifies the degree of metal chelation at a given pH and is defined as follows: […] [formula] where LT is the total concentration of the uncomplexed ligand, which is defined by the following equation: […]

[4] = Stability constants of the calcium complex by potentiometric titration (BEST program); assay type: physicochemical
From the text: as §1

[5] = Stability constants of the zinc complex by potentiometric titration (BEST program); assay type: physicochemical
From the text: as §1

[6] = Stability constants of the copper complex by potentiometric titration (BEST program); assay type: physicochemical
From the text: as §1

[7] = Selectivity constant and modified selectivity constant of the gadolinium complex; assay type: physicochemical
From the text: The selectivity constant is used only for showing the difference between the gadolinium complex and other metal complexes. However, due to the coexistence of the zinc ion, the calcium ion and the copper ion in vivo, all the following factors, which are the pH value, the protonation constant for the ligand, the concentrations of the metal ions (Zn^2+, Ca^2+, Cu^2+) and the stability constants for Gd^3+, Zn^2+, Ca^2+ and Cu^2+ complexes should be considered for obtaining the selectivity constant with a new definition, called modified selectivity constant (Ksel′) and defined by the following equation: Ksel′=Ktherm(αH^−1+αCaL^−1+αCuL^−1+αZnL^−1)^−1, where αH^−1=1+K1^H[H^+]+K1^HK2^H [H^+]^++ . . .; αCaL^−1=1+KCaL[Ca^2+]; αCuL^−1=1+KCuL[Cu^2+]; αZnL^−1=1+KZnL[Zn^2+]; and thus the modified selectivity constant of the gadolinium complex at the biological pH (7.4) could be calculated by the mentioned equation (the value of the conditional stability constant is calculated previously, and the concentrations of the zinc, the calcium and the copper ions are 50 μM, […] and 1 μm, respectively).

[8] = reported values; cited from earlier work
[9] = I = 0.1 M Me4NCl, T = 25.0 ± 0.1° C.; reported values; cited from earlier work
[10] = I = 0.1 M Me4NCl, T = 25.0 ± 0.1° C.; reported values; cited from earlier work; remark: listed apart in the source
[11] = I = 0.1 M Me4NCl, T = 25.0 ± 0.1° C.; reported values; cited from earlier work; remark: listed apart in the source
[12] = I = 0.1 M Me4NCl, T = 25.0 ± 0.1° C.; reported values; cited from earlier work; remark: listed apart in the source
[13] = Kinetic stability of the gadolinium complex toward zinc (II) transmetallation (relaxation rate ratio); assay type: physicochemical; conditions: incubation with zinc (II) for three days; phosphate buffer pH 7.4, 2.5 mM ZnCl2, 2.5 mM complex; 20 MHz, 37.0 ± 0.1° C.
From the text: Among Zn^2+, Ca^2+, Cu^2+ and other metal ions, the zinc (II) combines a rather high concentration with high affinity toward poly(amino carboxylate) and may result in the gadolinium complex dissociation in vivo. […] The reciprocal of the longitudinal relaxation time is the water proton paramagnetic longitudinal relaxation rate, R1^P(t), where the ration of R1^P(t)|R1^P(0) represents the stability of the gadolinium complex for Zn^2+. […] Based on the mentioned principle, the kinetic stability of the gadolinium complex for zinc (II) could be measured. […] Laurent et al, Invest. Radiol., vol. 36, page 155, 2001.

[14] = Relaxivity r1 by 20 MHz relaxometer; assay type: physicochemical; conditions: 37.0 ± 0.1° C., pH 7.4 ± 0.1
From the text: Mainly, the relaxivity of paramagnetic metal complex is affected by two factors, the inner-sphere and the outer-sphere relaxivities. Due to the existence of inner water molecules of the ligand of the present invention, the relaxivity thereof is mainly affected by the change of the inner-sphere relaxivity rather than the outer-sphere relaxivity (the outer-sphere relaxivity is considered similar to other ligands). The relaxivity of [Gd(CB-TTDA)]^2− is higher than those of [Gd(TTDA)]^2− (Y. M. Wang et al., Inorganic Chemistry, vol. 44, page 382, 2005) and [Gd(DTPA)]^2− (P. Caravan et al., Inorganic Chemistry, vol. 44, page 2170, 2001).

[15] = incubation with zinc (II) for three days; 20 MHz, 37.0 ± 0.1° C.; reported by S. Laurent et al; cited from earlier work
[16] = 20 MHz, 37.0 ± 0.1° C., cited from earlier work
[17] = cited from earlier work
human serum albumin = human serum albumin (Homo sapiens, UniProt P02768); conditions: bound to human serum albumin; cited from earlier work
human serum albumin, sequence (P02768 25-609): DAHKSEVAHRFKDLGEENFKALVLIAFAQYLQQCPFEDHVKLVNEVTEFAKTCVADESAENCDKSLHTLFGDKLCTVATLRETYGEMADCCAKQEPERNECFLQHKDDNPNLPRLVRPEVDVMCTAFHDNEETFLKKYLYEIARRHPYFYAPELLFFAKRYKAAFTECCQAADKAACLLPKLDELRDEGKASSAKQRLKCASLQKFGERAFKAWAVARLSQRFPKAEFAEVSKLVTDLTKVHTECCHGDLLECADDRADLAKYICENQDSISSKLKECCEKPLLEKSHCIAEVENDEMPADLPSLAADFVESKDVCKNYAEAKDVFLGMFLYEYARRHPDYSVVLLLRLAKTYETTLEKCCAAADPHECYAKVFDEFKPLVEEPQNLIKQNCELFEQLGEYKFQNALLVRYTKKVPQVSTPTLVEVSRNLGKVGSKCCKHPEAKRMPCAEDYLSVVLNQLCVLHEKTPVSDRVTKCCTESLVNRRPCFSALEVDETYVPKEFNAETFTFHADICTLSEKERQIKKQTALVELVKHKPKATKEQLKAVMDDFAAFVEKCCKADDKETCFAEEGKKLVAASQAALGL

Structure (SMILES): O=C([O-])CN1CCN(CCO[C@@H]2O[C@H](CO)[C@H](O)[C@H](O)[C@H]2O)CCN(CC(=O)[O-])CCN(CC(=O)[O-])CC1.[Gd+3] [Egad, 4,7,10-tri(aceticacid)-1-(2-β-galactopyranosylethoxy)-1,4,7,10-tetraazacyclododecane gadolinium (III)]
- number of inner space water molecules after hydrolysis by β-galactosidase [1]: 1.2

- ΣpKa [2]: 27.44
- pGd [3]: 15.25
- pCa [4]: 6.28
- log KCaL (pH = 7.4) (conditional stability constant) ([4]; pH = 7.4): 4.42
- pZn [5]: 12.86
- log KZnL (pH = 7.4) (conditional stability constant) ([5]; pH = 7.4): 11.32
- pCu [6]: 13.06
- log KCuL (pH = 7.4) (conditional stability constant) ([6]; pH = 7.4): 12.06
- log K(Gd/Ca) (selectivity constant) [7]: 9.83
- log K(Gd/Cu) (selectivity constant) [7]: 2.19
- log K(Gd/Zn) (selectivity constant) [7]: 2.93
Structure (SMILES): O=C(O)CN(CCCN(CC(=O)O)CC(=O)O)CCN(CC(=O)O)CC(=O)O [TTDA, 3,6,10-tri-(carboxymethyl)-3,6,10-triazadodecanedioic acid]
- log Kn^H [H2L]/[HL][H] [8]: 8.92
- log Kn^H [H3L]/[H2L][H] [8]: 5.12
- log Kn^H [H4L]/[H3L][H] [8]: 2.80
- log Kn^H [HL]/[L][H] [8]: 10.60
- log KML [GdL]/[Gd][L] (thermodynamic stability constant) [9]: 18.96
- log KCaHL [10]: 8.20
- log KML [CaL]/[Ca][L] [10]: 9.13
- log KML [ZnL]/[Zn][L] [11]: 16.03
- log KZnHL [11]: 7.80
- log KCuHL [12]: 5.69
- log KML [CuL]/[Cu][L] [12]: 16.77

- calculated conditional stability constant of the gadolinium complex [3]: 15.83
- log KML [GdL]/[Gd][L] (thermodynamic stability constant) [3]: 20.28
- R1^p (t = 3days)/R1^p (t = 0 days) [13]: 47.4%
- relaxivity r1 [14]: 4.12 ± 0.05 mM⁻¹ s⁻¹
Structure (SMILES): O=C([O-])CN(CCN(CC(=O)[O-])CC1(CN(CC(=O)[O-])CC(=O)[O-])CCC1)CC(=O)[O-].[Gd+3] [[Gd(CB-TTDA)]^2−]

- calculated conditional stability constant of the gadolinium complex ([3]; pH = 7.4): 18.14
Structure (SMILES): CNC[C@H](O)[C@@H](O)[C@H](O)[C@H](O)CO.CNC[C@H](O)[C@@H](O)[C@H](O)[C@H](O)CO.O=C([O-])CN(CCN(CC(=O)[O-])CC(=O)O)CCN(CC(=O)[O-])CC(=O)O.[Gd+3] [[Gd(DTPA)]^2−, gadopentetate dimeglumine]
- R1^p (t = 3days)/R1^p (t = 0 days) [15]: 49.79%
- relaxivity r1 ([16]; pH 7.6 ± 0.1, P. Caravan et al.): 3.89 ± 0.03 mM⁻¹ s⁻¹
- relaxivity ([17]; 20 MHz and 298 K): 3.89 mM⁻¹ s⁻¹
- relaxivity ([17]; Fulvio U. et al., 1995): 3.77 mM⁻¹ s⁻¹
- relaxivity for the combination with human serum albumin (human serum albumin): 33.0 mM⁻¹ s⁻¹

Structure (SMILES): CNC(=O)CN(CCN(CCN(CC(=O)[O-])CC(=O)NC)CC(=O)[O-])CC(=O)[O-].[Gd+3] [[Gd(DTPA-BMA)], bis-methylamide gadodiamide injection]
- R1^p (t = 3days)/R1^p (t = 0 days) [15]: 9%

- calculated conditional stability constant of the gadolinium complex [3]: 14.25
Structure (SMILES): O=C([O-])CN(CCCN(CC(=O)[O-])CC(=O)[O-])CCN(CC(=O)[O-])CC(=O)[O-].[Gd+3] [[Gd(TTDA)]^2−]
- relaxivity r1 ([16]; pH 7.5 ± 0.1, Y. M. Wang et al.): 3.85 ± 0.03 mM⁻¹ s⁻¹
